Experimental data as given in patent US20200069691A1, “HETEROCYCLIC COMPOUNDS AS HIV PROTEASE INHIBITORS” (Merck Sharp & Dohme Corp., priority 2016, published 2020).

Each molecule was assayed against T1, wild-type HIV-1 protease (Human immunodeficiency virus type 1 group M subtype B, UniProt P04585) (assay: Assay for Inhibition of Microbial Expressed HIV Protease (peptide substrate cleavage, LC-MS/MS readout)). Conditions: E. coli expressed wild-type HIV-1 protease, mean of at least two independent experiments, read-out: HIV Pr Enzyme HIV1 PR IC50.
T1 construct: Escherichia coli expressed wild-type HIV-1 protease protein
Type: biochemical
Outline: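 E. coli-expressed wild-type HIV-1 protease ([…]) was preincubated with inhibitor 30 min at room temperature in pH 5.5 acetate buffer (100 mM NaCl, 0.1% BSA). Then 400 μM octapeptide substrate was added and reacted 1 h at 30 °C; inhibition came from LC-MS/MS product peak areas, mean of ≥2 experiments.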

Structure (SMILES) | IC50
N=C1N[C@](CCCC(F)(F)F)(c2ccc(F)cc2)C(=O)N1Cc1ccc(C(F)(F)F)c(C(=O)N2Cc3cnc(-c4cccc(C(=O)N5CCSCC5)c4)nc3C2)c1 [Compound 67, (5R)-5-(4-fluorophenyl)-2-imino-3-[3-({2-[3-(thiomorpholin-4-ylcarbonyl)phenyl]-5,7-dihydro-6H-pyrrolo[3,4-d]pyrimidin-6-yl}carbonyl)-4-(trifluoromethyl)-benzyl]-5-(4,4,4-trifluorobutyl)-imidazolidin-4-one] | 7.87 nM
CC(C)CCC1(c2ccc(F)cc2)NC(=N)N(Cc2ccc(C(F)(F)F)c(C(=O)N3Cc4nccnc4C3)c2)C1=O (centres unmarked) [Compound 168, 3-[3-(5,7-dihydro-6H-pyrrolo[3,4-b]pyrazin-6-ylcarbonyl)-4-(trifluoromethyl)benzyl]-5-(4-fluorophenyl)-2-imino-5-(3-methylbutyl)imidazolidin-4-one] | 38.6 nM
N=C1NC(CCC2CC2)(c2cccc(F)c2)C(=O)N1Cc1ccc(C(F)(F)F)c(C(=O)N2Cc3nccnc3C2)c1 (centres unmarked) [Compound 26, 5-(2-cyclopropylethyl)-3-[3-(5,7-dihydro-6H-pyrrolo[3,4-b]pyrazin-6-ylcarbonyl)-4-(trifluoromethyl)benzyl]-5-(3-fluorophenyl)-2-iminoimidazolidin-4-one] | 2.85 nM
CC(C)CCC1(c2ccccc2)NC(=N)N(Cc2cccc(C(=O)N3Cc4cncnc4C3)c2)C1=O (centres unmarked) [Compound 227, 3-[3-(5,7-dihydro-6H-pyrrolo[3,4-d]pyrimidin-6-ylcarbonyl)benzyl]-2-imino-5-(3-methylbutyl)-5-phenylimidazolidin-4-one] | 12.6 nM
N=C1N[C@](CCCC(F)(F)F)(c2ccc(F)cc2)C(=O)N1Cc1ccc(C(F)(F)F)c(C(=O)N2CCN(c3cccnc3)CC2)c1 [Compound 108, (5R)-5-(4-fluorophenyl)-2-imino-3-{3-[(4-pyridin-3-ylpiperazin-1-yl)carbonyl]-4-(trifluoromethyl)-benzyl}-5-(4,4,4-trifluorobutyl)-imidazolidin-4-one] | 26.1 nM
N=C1N[C@](CCCC(F)(F)F)(c2ccc(F)cc2)C(=O)N1Cc1ccc(C(F)(F)F)c(C(=O)N2Cc3cnc(NC4CCCC4)nc3C2)c1 [Compound 71, (5R)-3-[3-{[2-(cyclopentylamino)-5,7-dihydro-6H-pyrrolo[3,4-d]pyrimidin-6-yl]carbonyl}-4-(trifluoromethyl)benzyl]-5-(4-fluorophenyl)-2-imino-5-(4,4,4-trifluorobutyl)imidazolidin-4-one] | 9.19 nM
CSc1nnc2n1CCN(C(=O)c1cc(CN3C(=N)N[C@](CCCC(F)(F)F)(c4ccc(F)cc4)C3=O)ccc1C(F)(F)F)C2 [Compound 50, (5R)-5-(4-fluorophenyl)-2-imino-3-[3-{[3-(methylsulfanyl)-5,6-dihydro[1,2,4]triazolo[4,3-a]pyrazin-7(8H)-yl]carbonyl}-4-(trifluoromethyl)benzyl]-5-(4,4,4-trifluorobutyl)imidazolidin-4-one] | 5.49 nM
COC(=O)N1CCN(C(=O)c2cccc(CN3C(=N)NC(c4ccc(F)cc4)(c4cccc(C#N)c4)C3=O)c2)CC1 (centres unmarked) [Compound 350, methyl 4-[(3-{[4-(3-cyanophenyl)-4-(4-fluorophenyl)-2-imino-5-oxoimidazolidin-1-yl]methyl}phenyl)carbony1] piperazine-1-carboxylate] | 85.3 nM
N#Cc1ncc2c(n1)CN(C(=O)c1cc(CN3C(=N)NC(c4ccccc4)(c4ccccc4)C3=O)ccc1Cl)C2 [Compound 367, 6-({2-chloro-5-[(2-imino-5-oxo-4,4-diphenylimidazolidin-1-yl)methyl]phenyl}carbonyl)-6,7-dihydro-5H-pyrrolo[3,4-d]pyrimidine-2-carbonitrile] | 5.13 nM
Cc1nocc1-c1ncc2c(n1)CN(C(=O)c1cc(CN3C(=N)N[C@](CCCC(F)(F)F)(c4ccc(F)cc4)C3=O)ccc1C(F)(F)F)C2 [Compound 60, (5R)-5-(4-fluorophenyl)-2-imino-3-[3-{[2-(3-methylisoxazol-4-yl)-5,7-dihydro-6H-pyrrolo[3,4-d]pyrimidin-6-yl]carbonyl}-4-(trifluoromethyl)benzyl]-5-(4,4,4-trifluorobutyl)imidazolidin-4-one] | 6.55 nM
Cc1cc(CN2C(=N)NC(c3ccc(F)cc3)(c3ccc(F)cc3)C2=O)cc(C(=O)N2Cc3nccnc3C2)n1 [Compound 406, 3-{[2-(5,7-dihydro-6H-pyrrolo[3,4-b]pyrazin-6-ylcarbonyl)-6-methylpyridin-4-yl]methyl}-5,5-bis(4-fluorophenyl)-2-iminoimidazolidin-4-one] | 10.6 nM
N=C1NC(c2ccccc2)(c2ccccc2)C(=O)N1Cc1cccc(C(=O)N2CCc3ccccc32)c1 [Compound 312, 3-[3-(2,3-dihydro-1H-indol-1-ylcarbonyl)benzyl]-2-imino-5,5-diphenylimidazolidin-4-one] | 52.1 nM
CC(C)CC1(c2ccccc2)NC(=N)N(Cc2cccc(C(=O)N3CCN(c4ccccc4)CC3)c2)C1=O (centres unmarked) [Compound 342, 2-imino-5-(2-methylpropyl)-5-phenyl-3-{3-[(4-phenylpiperazin-1-yl)carbonyl]benzyl} imidazolidin-4-one] | 78.8 nM
COC(=O)N1CCN(C(=O)c2cccc(CN3C(=N)NC(c4ccc(F)cc4)(c4cccc(-c5cccc(C#N)c5)c4)C3=O)c2)CC1 (centres unmarked) [Compound 234, methyl 4-[(3-{[4-(3′-cyanobiphenyl-3-yl)-4-(4-fluorophenyl)-2-imino-5-oxoimidazolidin-1-yl]methyl}phenyl)-carbonyl]piperazine-1-carboxylate] | 14.2 nM
N=C1NC(c2ccc(F)cc2)(c2ccc(F)cc2)C(=O)N1Cc1cccc(C(=O)N2Cc3cncnc3C2)c1 [Compound 215, 3-[3-(5,7-dihydro-6H-pyrrolo[3,4-d]pyrimidin-6-ylcarbonyl)benzyl]-5,5-bis(4-fluorophenyl)-2-iminoimidazolidin-4-one] | 23 nM
CCC(c1cccc(C(=O)N2Cc3ccccc3C2)c1)N1C(=N)NC(c2ccccc2)(c2ccccc2)C1=O (centres unmarked) [Compound 225, 3-{1-[3-(1,3-dihydro-2H-isoindol-2-ylcarbonyl)phenyl]propyl}-2-imino-5,5-diphenylimidazolidin-4-one] | 11.9 nM
N=C1NC(c2ccccc2)(c2ccccc2)C(=O)N1Cc1cccc(C(=O)N2CCN(C(=O)OCc3ccccc3)CC2)c1 [Compound 260, benzyl 4-({3-[(2-imino-5-oxo-4,4-diphenylimidazolidin-1-yl)methyl]phenyl}carbonyl) piperazine-1-carboxylate] | 23.2 nM
N=C1N[C@](CCCC(F)(F)F)(c2ccc(F)cc2)C(=O)N1Cc1ccc(C(F)(F)F)c(C(=O)N2Cc3cnc(-c4cnn(-c5ccccc5)c4)nc3C2)c1 [Compound 72, (5R)-5-(4-fluorophenyl)-2-imino-3-[3-{[2-(1-phenyl-1H-pyrazol-4-yl)-5,7-dihydro-6H-pyrrolo[3,4-d]pyrimidin-6-yl]carbonyl}-4-(trifluoromethyl)benzyl]-5-(4,4,4-trifluorobutyl)imidazolidin-4-one] | 9.2 nM
C[C@H](c1cccc(C(=O)N2Cc3cncnc3C2)c1)N1C(=N)NC(c2ccccc2)(c2ccccc2)C1=O [Compound 228, 3-{(1R)-1-[3-(5,7-dihydro-6H-pyrrolo[3,4-d]pyrimidin-6-ylcarbonyl)phenyl]ethyl}-2-imino-5,5-diphenylimidazolidin-4-one] | 13.1 nM
N=C1NC(c2ccccc2)(c2ccccc2)C(=O)N1Cc1ccc(C(F)(F)F)c(C(=O)N2Cc3nccnc3C2)c1 [Compound 143, 3-[3-(5,7-dihydro-6H-pyrrolo[3,4-b]pyrazin-6-ylcarbonyl)-4-(trifluoromethyl)benzyl]-2-imino-5,5-diphenylimidazolidin-4-one] | 3.43 nM
N=C1N[C@](CCCC(F)(F)F)(c2ccc(F)cc2)C(=O)N1Cc1ccc(C(F)(F)F)c(C(=O)N2Cc3cnc(-c4ccc(F)cc4)nc3C2)c1 [Compound 97, (5R)-5-(4-fluorophenyl)-3-[3-{[2-(4-fluorophenyl)-5,7-dihydro-6H-pyrrolo[3,4-d]pyrimidin-6-yl]carbonyl}-4-(trifluoromethyl)-benzyl]-2-imino-5-(4,4,4-trifluorobutyl)imidazolidin-4-one] | 20.5 nM
CCOC(=O)c1nc2n(c1Cl)CCN(C(=O)c1cccc(CN3C(=N)NC(c4ccccc4)(c4ccccc4)C3=O)c1)C2 [Compound 247, ethyl 3-chloro-7-({3-[(2-imino-5-oxo-4,4-diphenylimidazolidin-1-yl)methyl]phenyl}carbonyl)-5,6,7,8-tetrahydroimidazo[1,2-a]pyrazine-2-carboxylate] | 17.9 nM
N=C1NC(c2ccccc2)(c2ccccc2)C(=O)N1Cc1ccc(C(F)(F)F)c(C(=O)N2CCNC(=O)C2)c1 [Compound 160, 4-({5-[(2-imino-5-oxo-4,4-diphenylimidazolidin-1-yl)methyl]-2-(trifluoromethyl)phenyl}-carbonyl)piperazin-2-one] | 20.2 nM
N=C1NC(c2ccccc2)(c2ccccc2)C(=O)N1Cc1cc(F)cc(C(=O)N2Cc3cncnc3C2)c1 [Compound 258, 3-[3-(5,7-dihydro-6H-pyrrolo[3,4-d]pyrimidin-6-ylcarbonyl)-5-fluorobenzyl]-2-imino-5,5-diphenylimidazolidin-4-one] | 22.1 nM
CC(C)CC[C@]1(c2ccc(F)cc2)NC(=N)N(C(CCCc2ccccc2)c2ccc(C(F)(F)F)c(C(=O)N3Cc4nccnc4C3)c2)C1=O (stereo partly drawn) [Compound 2, (5R)-3-{1-[3-(5,7-dihydro-6H-pyrrolo[3,4-b]pyrazin-6-ylcarbonyl)-4-(trifluoro-methyl)phenyl]-4-phenylbutyl}-5-(4-fluorophenyl)-2-imino-5-(3-methylbutyl)imidazolidin-4-one] | 0.14 nM
COC(=O)Nc1ncc2c(n1)CN(C(=O)c1cccc(CN3C(=N)NC(c4ccccc4)(c4ccccc4)C3=O)c1)C2 [Compound 190, methyl [6-({3-[(2-imino-5-oxo-4,4-diphenylimidazolidin-1-yl)methyl]phenyl}carbonyl)-6,7-dihydro-5H-pyrrolo[3,4-d]pyrimidin-2-yl]carbamate] | 3.86 nM
